Source: the CheMixHub viscosity set

Assay: xn = mol fraction of the nth substance listed

Clc1ccccc1Cl + CCNc1ccccc1
viscosity [mPa·s], 101 kPa
Details | 303.15 K | 308.15 K
x2 = 0.0789 | 1.286 | 1.19
x2 = 0.1156 | 1.309 | 1.21
x2 = 0.1659 | 1.338 | 1.234
x2 = 0.2569 | 1.391 | 1.277
x2 = 0.3287 | 1.43 | 1.309
x2 = 0.3968 | 1.467 | 1.339
x2 = 0.4925 | 1.516 | 1.379
x2 = 0.5421 | 1.541 | 1.399
x2 = 0.6325 | 1.584 | 1.434
x2 = 0.6897 | 1.611 | 1.454
x2 = 0.7659 | 1.646 | 1.48
x2 = 0.8425 | 1.678 | 1.508
x2 = 0.9121 | 1.709 | 1.531

C=COC(C)=O + CCO
303.15 K, 101.33 kPa
Details | viscosity [mPa·s]
x1 = 0.0998 | 0.787
x1 = 0.2001 | 0.651
x1 = 0.2995 | 0.564
x1 = 0.4007 | 0.501
x1 = 0.5002 | 0.457
x1 = 0.599 | 0.425
x1 = 0.7013 | 0.402
x1 = 0.8005 | 0.386
x1 = 0.9002 | 0.378

CC(C)c1ccccc1 + CCO
viscosity [mPa·s], 101 kPa
Details | x1 = 0.0663 | x1 = 0.1236 | x1 = 0.2015 | x1 = 0.2971 | x1 = 0.4052 | x1 = 0.5656 | x1 = 0.7293
298.15 K | 1.036 | 0.982 | 0.926 | 0.878 | 0.836 | 0.796 | 0.764
308.15 K | 0.897 | 0.86 | 0.81 | 0.753 | 0.7 | 0.653 | 0.64

CCC(CC)CO + CCO
298.15 K, 101.33 kPa
Details | viscosity [mPa·s]
x2 = 0.1055 | 5.144
x2 = 0.2003 | 4.502
x2 = 0.3067 | 3.844
x2 = 0.4044 | 3.291
x2 = 0.503 | 2.777
x2 = 0.6076 | 2.35
x2 = 0.6966 | 1.972
x2 = 0.8051 | 1.617
x2 = 0.9036 | 1.345

CCCCOC(C)=O + CCO
viscosity [mPa·s], 101 kPa
Details | x1 = 0.0995 | x1 = 0.1987 | x1 = 0.2996 | x1 = 0.4023 | x1 = 0.4982 | x1 = 0.5987 | x1 = 0.693 | x1 = 0.7968 | x1 = 0.9004
298.15 K | 0.937 | 0.835 | 0.765 | 0.71 | 0.668 | 0.647 | 0.639 | 0.641 | 0.648
303.15 K | 0.871 | – | 0.712 | 0.663 | – | 0.612 | 0.61 | 0.616 | 0.621
308.15 K | 0.797 | 0.719 | 0.657 | 0.621 | 0.591 | 0.582 | 0.582 | 0.582 | 0.587
313.15 K | 0.734 | 0.671 | 0.621 | 0.591 | 0.563 | 0.558 | 0.555 | 0.562 | –

CCCN + CCO
Details | viscosity [mPa·s]
298.15 K, 100 kPa, x2 = 0.0515 | 0.3851
298.15 K, 100 kPa, x2 = 0.098 | 0.4053
298.15 K, 100 kPa, x2 = 0.2026 | 0.4571
298.15 K, 100 kPa, x2 = 0.2763 | 0.4993
298.15 K, 100 kPa, x2 = 0.3874 | 0.5717
298.15 K, 100 kPa, x2 = 0.4986 | 0.6539
298.15 K, 100 kPa, x2 = 0.6013 | 0.7371
298.15 K, 100 kPa, x2 = 0.7485 | 0.865
298.15 K, 100 kPa, x2 = 0.7991 | 0.9101
298.15 K, 100 kPa, x2 = 0.8981 | 0.9984
298.15 K, 100 kPa, x2 = 0.961 | 1.052
303.15 K, 101.33 kPa, x1 = 0.1084 | 0.9336
303.15 K, 101.33 kPa, x1 = 0.2091 | 0.8629
303.15 K, 101.33 kPa, x1 = 0.3178 | 0.7773
303.15 K, 101.33 kPa, x1 = 0.4096 | 0.7051
303.15 K, 101.33 kPa, x1 = 0.5111 | 0.6253
303.15 K, 101.33 kPa, x1 = 0.6177 | 0.5566
303.15 K, 101.33 kPa, x1 = 0.7059 | 0.5029
303.15 K, 101.33 kPa, x1 = 0.8061 | 0.4453
303.15 K, 101.33 kPa, x1 = 0.901 | 0.3982
313.15 K, 101.33 kPa, x1 = 0.1084 | 0.7854
313.15 K, 101.33 kPa, x1 = 0.2091 | 0.7216
313.15 K, 101.33 kPa, x1 = 0.3178 | 0.6541
313.15 K, 101.33 kPa, x1 = 0.4096 | 0.5979
313.15 K, 101.33 kPa, x1 = 0.5111 | 0.5352
313.15 K, 101.33 kPa, x1 = 0.6177 | 0.475
313.15 K, 101.33 kPa, x1 = 0.7059 | 0.4325
313.15 K, 101.33 kPa, x1 = 0.8061 | 0.3864
313.15 K, 101.33 kPa, x1 = 0.901 | 0.3474

Oc1ccccc1Cl + CCO
Details | viscosity [mPa·s]
298.15 K, 101 kPa, x1 = 0.5 | 1.452
